# Measurements: PubChem BioAssay (NCI)
#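 Cultured in 96-well plates, cells were exposed to test compound for 48 hours across five concentrations. At the TGI there is no net growth.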
# What was measured:
# Assay in all cases: growth of human tumour cells (NCI), 48 h
# OVCAR-4 ovarian = tested on: OVCAR-4 ovarian
# UACC-257 melanoma = tested on: UACC-257 melanoma
# A498 renal = tested on: A498 renal
# OVCAR-8 ovarian = tested on: OVCAR-8 ovarian
# RPMI-8226 leukemia = tested on: RPMI-8226 leukemia
# SF-295 CNS = tested on: SF-295 CNS
# UACC-62 melanoma = tested on: UACC-62 melanoma
# HL-60(TB) leukemia = tested on: HL-60(TB) leukemia
# K-562 leukemia = tested on: K-562 leukemia
# HS 578T breast = tested on: HS 578T breast
# SR leukemia = tested on: SR leukemia
# MDA-MB-435 = tested on: MDA-MB-435
# HOP-62 NSCLC = tested on: HOP-62 NSCLC
# CAKI-1 renal = tested on: CAKI-1 renal
# SK-MEL-5 melanoma = tested on: SK-MEL-5 melanoma
# 786-0 renal = tested on: 786-0 renal
# PC-3 prostate = tested on: PC-3 prostate
# BT-549 breast = tested on: BT-549 breast
# SF-539 CNS = tested on: SF-539 CNS
# NCI-H226 lung = tested on: NCI-H226 lung
# SK-MEL-28 melanoma = tested on: SK-MEL-28 melanoma
# HOP-92 NSCLC = tested on: HOP-92 NSCLC
# COLO 205 colon = tested on: COLO 205 colon
# ACHN renal = tested on: ACHN renal
# UO-31 renal = tested on: UO-31 renal
# NCI/ADR-RES ovarian = tested on: NCI/ADR-RES ovarian
# LOX IMVI melanoma = tested on: LOX IMVI melanoma
# TK-10 renal = tested on: TK-10 renal
# RXF 393 renal = tested on: RXF 393 renal
# SK-OV-3 ovarian = tested on: SK-OV-3 ovarian
# SN12C renal = tested on: SN12C renal
# T-47D breast = tested on: T-47D breast
# KM12 colon = tested on: KM12 colon
# MDA-N = tested on: MDA-N
# SNB-19 CNS = tested on: SNB-19 CNS
# NCI-H522 lung = tested on: NCI-H522 lung
# HCT-116 colon = tested on: HCT-116 colon
# HCC-2998 colon = tested on: HCC-2998 colon
# SF-268 CNS = tested on: SF-268 CNS
# MCF7 breast = tested on: MCF7 breast
# MOLT-4 leukemia = tested on: MOLT-4 leukemia
# M14 melanoma = tested on: M14 melanoma
# SNB-75 CNS = tested on: SNB-75 CNS
# MDA-MB-231 breast = tested on: MDA-MB-231 breast
# EKVX NSCLC = tested on: EKVX NSCLC
# IGROV1 ovarian = tested on: IGROV1 ovarian
# SW-620 colon = tested on: SW-620 colon
# A549 NSCLC = tested on: A549 NSCLC
# NCI-H460 lung = tested on: NCI-H460 lung
# NCI-H23 lung = tested on: NCI-H23 lung
# OVCAR-3 ovarian = tested on: OVCAR-3 ovarian
# OVCAR-5 ovarian = tested on: OVCAR-5 ovarian
# HCT-15 colon = tested on: HCT-15 colon
# HT29 colon = tested on: HT29 colon
# U251 CNS = tested on: U251 CNS
# SK-MEL-2 melanoma = tested on: SK-MEL-2 melanoma
# DU-145 prostate = tested on: DU-145 prostate
# MALME-3M melanoma = tested on: MALME-3M melanoma
# CCRF-CEM leukemia = tested on: CCRF-CEM leukemia
compound,measurement,setting,value
CC(C)(N=NC(C)(C)C(=N)N)C(=N)N,TGI,OVCAR-4 ovarian,> 100 µM
same,TGI,UACC-257 melanoma,> 100 µM
same,TGI,A498 renal,> 100 µM
same,TGI,OVCAR-8 ovarian,> 100 µM
same,TGI,RPMI-8226 leukemia,> 100 µM
same,TGI,SF-295 CNS,> 100 µM
same,TGI,UACC-62 melanoma,> 100 µM
same,TGI,HL-60(TB) leukemia,> 100 µM
same,TGI,K-562 leukemia,> 100 µM
same,TGI,HS 578T breast,> 100 µM
same,TGI,SR leukemia,> 100 µM
same,TGI,MDA-MB-435,> 100 µM
same,TGI,HOP-62 NSCLC,> 100 µM
same,TGI,CAKI-1 renal,> 100 µM
same,TGI,SK-MEL-5 melanoma,> 100 µM
same,TGI,786-0 renal,> 100 µM
same,TGI,PC-3 prostate,> 100 µM
same,TGI,BT-549 breast,> 100 µM
same,TGI,SF-539 CNS,> 100 µM
same,TGI,NCI-H226 lung,> 100 µM
same,TGI,SK-MEL-28 melanoma,> 100 µM
same,TGI,HOP-92 NSCLC,> 100 µM
same,TGI,COLO 205 colon,> 100 µM
same,TGI,ACHN renal,> 100 µM
same,TGI,UO-31 renal,> 100 µM
same,TGI,NCI/ADR-RES ovarian,> 100 µM
same,TGI,LOX IMVI melanoma,> 100 µM
same,TGI,TK-10 renal,> 100 µM
same,TGI,RXF 393 renal,> 100 µM
same,TGI,SK-OV-3 ovarian,> 100 µM
same,TGI,SN12C renal,> 100 µM
same,TGI,T-47D breast,> 100 µM
same,TGI,KM12 colon,> 100 µM
same,TGI,MDA-N,> 100 µM
same,TGI,SNB-19 CNS,> 100 µM
same,TGI,NCI-H522 lung,> 100 µM
same,TGI,HCT-116 colon,> 100 µM
same,TGI,HCC-2998 colon,> 100 µM
same,TGI,SF-268 CNS,> 100 µM
same,TGI,MCF7 breast,> 100 µM
same,TGI,MOLT-4 leukemia,> 100 µM
same,TGI,M14 melanoma,> 100 µM
same,TGI,SNB-75 CNS,> 100 µM
same,TGI,MDA-MB-231 breast,> 100 µM
same,TGI,EKVX NSCLC,> 100 µM
same,TGI,IGROV1 ovarian,> 100 µM
same,TGI,SW-620 colon,> 100 µM
same,TGI,A549 NSCLC,> 100 µM
same,TGI,NCI-H460 lung,> 100 µM
same,TGI,NCI-H23 lung,> 100 µM
same,TGI,OVCAR-3 ovarian,> 100 µM
same,TGI,OVCAR-5 ovarian,> 100 µM
same,TGI,HCT-15 colon,> 100 µM
same,TGI,HT29 colon,> 100 µM
same,TGI,U251 CNS,> 100 µM
same,TGI,SK-MEL-2 melanoma,> 100 µM
same,TGI,DU-145 prostate,> 100 µM
COc1cc(OC)cc(C(=O)NC2=C(Cl)C(=O)c3ccccc3C2=O)c1,TGI,OVCAR-4 ovarian,6.01 µM
same,TGI,UACC-257 melanoma,6.2 µM
same,TGI,A498 renal,27.1 µM
same,TGI,OVCAR-8 ovarian,17.6 µM
same,TGI,RPMI-8226 leukemia,> 21.7 µM
same,TGI,SF-295 CNS,9.91 µM
same,TGI,UACC-62 melanoma,1.22 µM
same,TGI,K-562 leukemia,4.01 µM
same,TGI,HS 578T breast,24.4 µM
same,TGI,SR leukemia,> 23.1 µM
same,TGI,MDA-MB-435,4.48 µM
same,TGI,HOP-62 NSCLC,27.8 µM
same,TGI,CAKI-1 renal,17.7 µM
same,TGI,SK-MEL-5 melanoma,5.35 µM
same,TGI,PC-3 prostate,10.9 µM
same,TGI,BT-549 breast,9.22 µM
same,TGI,SF-539 CNS,18.5 µM
same,TGI,MALME-3M melanoma,3.31 µM
same,TGI,CCRF-CEM leukemia,3.99 µM
same,TGI,NCI-H226 lung,12 µM
same,TGI,SK-MEL-28 melanoma,19 µM
same,TGI,HOP-92 NSCLC,2.89 µM
same,TGI,COLO 205 colon,15.6 µM
same,TGI,ACHN renal,2.83 µM
same,TGI,UO-31 renal,9.42 µM
same,TGI,NCI/ADR-RES ovarian,11.9 µM
same,TGI,LOX IMVI melanoma,5.14 µM
same,TGI,TK-10 renal,7.68 µM
same,TGI,RXF 393 renal,4.09 µM
same,TGI,SK-OV-3 ovarian,11.2 µM
same,TGI,SN12C renal,13.1 µM
same,TGI,T-47D breast,3.51 µM
same,TGI,KM12 colon,10.4 µM
same,TGI,MDA-N,5.13 µM
same,TGI,SNB-19 CNS,21.9 µM
same,TGI,NCI-H522 lung,2.47 µM
same,TGI,HCT-116 colon,2.35 µM
same,TGI,HCC-2998 colon,13.8 µM
same,TGI,SF-268 CNS,12.8 µM
same,TGI,MCF7 breast,8.73 µM
same,TGI,MOLT-4 leukemia,6.12 µM
same,TGI,M14 melanoma,6.67 µM
same,TGI,SNB-75 CNS,12.3 µM
same,TGI,MDA-MB-231 breast,29.2 µM
same,TGI,EKVX NSCLC,> 39.6 µM
same,TGI,IGROV1 ovarian,12.9 µM
same,TGI,SW-620 colon,2.65 µM
same,TGI,A549 NSCLC,> 38.3 µM
same,TGI,NCI-H460 lung,9.24 µM
same,TGI,NCI-H23 lung,7.93 µM
same,TGI,OVCAR-3 ovarian,5.54 µM
same,TGI,OVCAR-5 ovarian,16.6 µM
same,TGI,HCT-15 colon,10.4 µM
same,TGI,HT29 colon,10.9 µM
same,TGI,U251 CNS,9.42 µM
same,TGI,SK-MEL-2 melanoma,4.01 µM
same,TGI,DU-145 prostate,16.8 µM
